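Test compounds were applied to cells in 96-well plates for 48 hours at 5 doses. Abbreviation: GI50, concentration required for 50% inhibition of growth.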 Active and inactive are the calls of the source. Rule as the data show it: active = GI50 up to about 1.1 µM and inactive = higher.
Legend:
Test in all cases: DTP human tumour cell line panel, 48 h
786-0 = system: 786-0
ACHN = system: ACHN
BT-549 = system: BT-549
CAKI-1 = system: CAKI-1
DU-145 = system: DU-145
HCT-116 = system: HCT-116
HL-60 = system: HL-60
HOP-92 = system: HOP-92
M14 = system: M14
MDA-MB-231 = system: MDA-MB-231
MOLT-4 = system: MOLT-4
PC-3 = system: PC-3
RXF 393 = system: RXF 393
SF-295 = system: SF-295
SK-MEL-28 = system: SK-MEL-28
SK-MEL-2 = system: SK-MEL-2
SK-MEL-5 = system: SK-MEL-5
SR = system: SR
T47D = system: T47D
TK-10 = system: TK-10

Structure (SMILES) | GI50 (786-0) | GI50 (ACHN) | GI50 (BT-549) | GI50 (CAKI-1) | GI50 (DU-145) | GI50 (HCT-116) | GI50 (HL-60) | GI50 (HOP-92) | GI50 (M14) | GI50 (MDA-MB-231) | GI50 (MOLT-4) | GI50 (PC-3) | GI50 (RXF 393) | GI50 (SF-295) | GI50 (SK-MEL-28) | GI50 (SK-MEL-2) | GI50 (SK-MEL-5) | GI50 (SR) | GI50 (T47D) | GI50 (TK-10)
COc1cccc(C2c3cc4c(cc3OC(NNS(=O)(=O)c3ccc(C)cc3)C2C)OCO4)c1OC (stereo unspecified) | 22.2 µM (inactive) | 2.77 µM (inactive) | 2.2 µM (inactive) | 2.29 µM (inactive) | 2.29 µM (inactive) | 1.78 µM (inactive) | 1.42 µM (inactive) | 2.15 µM (inactive) | 3.59 µM (inactive) | 5.47 µM (inactive) | 2.74 µM (inactive) | 2.97 µM (inactive) | 2.12 µM (inactive) | 2.9 µM (inactive) | 6.98 µM (inactive) | 2.31 µM (inactive) | 2.83 µM (inactive) | 1.36 µM (inactive) | 3.44 µM (inactive) | 4.46 µM (inactive)
COP(=O)(CC(=O)C1OC(OCc2ccccc2)C(OCc2ccccc2)C(OCc2ccccc2)C1OCc1ccccc1)OC (stereo unspecified) | 12.5 µM (inactive) | 5.71 µM (inactive) | 17.4 µM (inactive) | 4.7 µM (inactive) | 22 µM (inactive) | 5.11 µM (inactive) | 4.39 µM (inactive) | 10.4 µM (inactive) | 10.9 µM (inactive) | 10.2 µM (inactive) | 2.69 µM (inactive) | 5.01 µM (inactive) | 2.62 µM (inactive) | 5.36 µM (inactive) | 54 µM (inactive) | 3.22 µM (inactive) | 4.23 µM (inactive) | 3.26 µM (inactive) | 4.3 µM (inactive) | 15.3 µM (inactive)
O=C(O)c1cc(/N=N/c2ccc([N+](=O)[O-])cc2)ccc1O | 34.3 µM (inactive) | 37.3 µM (inactive) | 42.4 µM (inactive) | 29.2 µM (inactive) | 38.3 µM (inactive) | 30.5 µM (inactive) | 29 µM (inactive) | 18 µM (inactive) | 39.4 µM (inactive) | 26.9 µM (inactive) | 24.8 µM (inactive) | 33.7 µM (inactive) | 42.3 µM (inactive) | 32.3 µM (inactive) | 37.7 µM (inactive) | 26.5 µM (inactive) | 34.6 µM (inactive) | 29.4 µM (inactive) | 42.6 µM (inactive) | 25.6 µM (inactive)
COc1ccc2c(=O)cc(-c3ccncc3)oc2c1OC | 27.9 µM (inactive) | 25.7 µM (inactive) | 26 µM (inactive) | 36.1 µM (inactive) | 24.7 µM (inactive) | 24.2 µM (inactive) | 19.5 µM (inactive) | 17.7 µM (inactive) | 19.8 µM (inactive) | 31.8 µM (inactive) | 7.57 µM (inactive) | 23.8 µM (inactive) | 24.9 µM (inactive) | 20.9 µM (inactive) | 26.5 µM (inactive) | 25.3 µM (inactive) | 17.5 µM (inactive) | 6.67 µM (inactive) | 48.8 µM (inactive) | 28.1 µM (inactive)
O=C1c2ccccc2C(=O)c2sc(Nc3ccc([N+](=O)[O-])cc3)nc21 | 5.27 µM (inactive) | 2.99 µM (inactive) | 14.3 µM (inactive) | 4.25 µM (inactive) | 19.2 µM (inactive) | 6.62 µM (inactive) | 0.984 µM (active) | 13.8 µM (inactive) | 2.54 µM (inactive) | 2.3 µM (inactive) | 1.92 µM (inactive) | 7.38 µM (inactive) | 5.16 µM (inactive) | 11.8 µM (inactive) | 10.6 µM (inactive) | 13.6 µM (inactive) | 2.39 µM (inactive) | 2.63 µM (inactive) | 2.18 µM (inactive) | 12.2 µM (inactive)
Cc1n[nH]c(=O)n1/N=C\CC/C=N\n1c(C)n[nH]c1=O | > 100 µM (inactive) | > 100 µM (inactive) | > 100 µM (inactive) | > 100 µM (inactive) | > 100 µM (inactive) | > 100 µM (inactive) | > 100 µM (inactive) | > 100 µM (inactive) | > 100 µM (inactive) | > 100 µM (inactive) | > 100 µM (inactive) | > 100 µM (inactive) | > 100 µM (inactive) | > 100 µM (inactive) | > 100 µM (inactive) | > 100 µM (inactive) | > 100 µM (inactive) | > 100 µM (inactive) | > 100 µM (inactive) | > 100 µM (inactive)
CC(=O)C(=[N+]=[N-])C(=O)OCCOC(=O)C(=[N+]=[N-])C(C)=O | > 1 µM (active) | > 1 µM (active) | > 1 µM (active) | – | > 1 µM (active) | > 1 µM (active) | > 1 µM (active) | > 1 µM (active) | > 1 µM (active) | > 1 µM (active) | > 1 µM (active) | > 1 µM (active) | > 1 µM (active) | > 1 µM (active) | > 1 µM (active) | > 1 µM (active) | > 1 µM (active) | > 1 µM (active) | > 1 µM (active) | > 1 µM (active)
CN1CCN(c2nc3c(c(=O)n(C)c(=O)n3C)n2C)CC1 | > 100 µM (inactive) | > 100 µM (inactive) | > 100 µM (inactive) | > 100 µM (inactive) | > 100 µM (inactive) | > 100 µM (inactive) | > 100 µM (inactive) | > 100 µM (inactive) | > 100 µM (inactive) | > 100 µM (inactive) | – | > 100 µM (inactive) | > 100 µM (inactive) | > 100 µM (inactive) | > 100 µM (inactive) | > 100 µM (inactive) | > 100 µM (inactive) | > 100 µM (inactive) | > 100 µM (inactive) | > 100 µM (inactive)
c1csc(-c2cc(-c3cccs3)c(-c3cccs3)s2)c1 | > 100 µM (inactive) | > 100 µM (inactive) | > 100 µM (inactive) | > 100 µM (inactive) | > 100 µM (inactive) | 40.9 µM (inactive) | – | 91.8 µM (inactive) | 47 µM (inactive) | 56.1 µM (inactive) | 36.1 µM (inactive) | > 100 µM (inactive) | 61.5 µM (inactive) | > 100 µM (inactive) | 57.4 µM (inactive) | – | 33.2 µM (inactive) | 51.1 µM (inactive) | 4.69 µM (inactive) | > 100 µM (inactive)
CCC1CCC2c3c([nH]c4ccccc34)C3C(=O)N(c4ccc(OC)cc4)C(=O)C3C2C1 (stereo unspecified) | > 100 µM (inactive) | 39.8 µM (inactive) | > 100 µM (inactive) | – | > 100 µM (inactive) | 20 µM (inactive) | 28.2 µM (inactive) | – | 63 µM (inactive) | 49.7 µM (inactive) | 16.7 µM (inactive) | > 100 µM (inactive) | > 100 µM (inactive) | 26.8 µM (inactive) | 63.8 µM (inactive) | – | > 100 µM (inactive) | 16.1 µM (inactive) | 16.8 µM (inactive) | 28.2 µM (inactive)
CC(=O)OCC1OC(Nc2ccc3nc(C)n(-c4ccccc4)c(=O)c3c2)C(OC(C)=O)C(OC(C)=O)C1OC(C)=O (stereo unspecified) | > 50 µM (inactive) | > 50 µM (inactive) | > 50 µM (inactive) | > 50 µM (inactive) | > 50 µM (inactive) | > 50 µM (inactive) | 23.7 µM (inactive) | – | – | > 50 µM (inactive) | > 50 µM (inactive) | > 50 µM (inactive) | > 50 µM (inactive) | > 50 µM (inactive) | > 50 µM (inactive) | > 50 µM (inactive) | > 50 µM (inactive) | 24.1 µM (inactive) | > 50 µM (inactive) | > 50 µM (inactive)
COc1ccc2c(c1)N=C(N)n1c(nc3ccccc31)S2 | 1.95 µM (inactive) | 21.3 µM (inactive) | 27.1 µM (inactive) | – | 74.8 µM (inactive) | 3.65 µM (inactive) | 3.79 µM (inactive) | 11.7 µM (inactive) | 4.01 µM (inactive) | 12.7 µM (inactive) | 5.28 µM (inactive) | 7.24 µM (inactive) | 19.5 µM (inactive) | 38.5 µM (inactive) | 70.1 µM (inactive) | 7.98 µM (inactive) | 7.29 µM (inactive) | 5.52 µM (inactive) | 15.2 µM (inactive) | > 100 µM (inactive)
CN=C(n1ccnc1)n1ccnc1 | > 100 µM (inactive) | – | > 100 µM (inactive) | > 100 µM (inactive) | > 100 µM (inactive) | > 100 µM (inactive) | > 100 µM (inactive) | – | > 100 µM (inactive) | > 100 µM (inactive) | > 100 µM (inactive) | > 100 µM (inactive) | > 100 µM (inactive) | – | > 100 µM (inactive) | > 100 µM (inactive) | > 100 µM (inactive) | > 100 µM (inactive) | > 100 µM (inactive) | > 100 µM (inactive)
Cc1cc2[n-][n+]3ncc(-c4ccccc4)n3c2cc1[N+](=O)[O-] | > 100 µM (inactive) | > 100 µM (inactive) | > 100 µM (inactive) | > 100 µM (inactive) | > 100 µM (inactive) | > 100 µM (inactive) | > 100 µM (inactive) | > 100 µM (inactive) | – | > 100 µM (inactive) | > 100 µM (inactive) | > 100 µM (inactive) | > 100 µM (inactive) | > 100 µM (inactive) | > 100 µM (inactive) | > 100 µM (inactive) | > 100 µM (inactive) | > 100 µM (inactive) | > 100 µM (inactive) | > 100 µM (inactive)

— ChEMBL document CHEMBL1201862, “PubChem BioAssay data set” (2004)
